Measurements reported in patent US8247211B2, “Glycopeptide antibiotics” (American Cyanamid Company, priority 2001, dated 2012).
≈ marks a conversion by molar mass, not a printed value.

How the values were obtained:
[1] = system: Staphylococcus aureus-SMITH (GC 4543); experiment: Acute lethal infection in mice (ED50); type: in vivo; settings: female CD-1 mice, intraperitoneal challenge, intravenous dose 30 min. after infection, 7 day survival ratios
Method in brief: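 Female CD-1 mice challenged intraperitoneally with a bacterial dose lethal to untreated controls within 24-48 h. Compound given intravenously in saline or 5% dextrose 30 min post-infection, five mice per dose; ED50 from 7-day survival pooled over 3 tests.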

Escherichia coli = experiment: In vitro antibacterial evaluation: minimum inhibitory concentration (MIC), broth dilution method; type: cell-based
Method in brief: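 Following NCCLS approved standard M7-A2, compounds are serially diluted from 64 to 0.06 μg/mL in Muller-Hinton II […] and inoculated at 5×10^5 CFU/mL; the MIC is the minimum concentration at which growth is inhibited.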

Staphylococcus sp. = experiment: as above; type: cell-based; settings: broth dilution, 18 hours at 35° C.
Method in brief: (§1)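 Susceptibility determined by NCCLS-recommended broth dilution (M7-A2), Muller-Hinton II […]. Concentration span 64-0.06 μg/mL, inoculum 5×10^5 CFU/mL. Isolates include strains resistant to methicillin, penicillin and/or vancomycin.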

Streptococcus sp. = experiment: as above; type: cell-based
Method in brief: as §1

Enterococcus sp. = experiment: as above; type: cell-based
Method in brief: as §1

[2] = broth dilution, inoculum 5×10^5 CFU/mL, 18 hours at 35° C.

## CC(c1ccccc1)C1NC(=O)CNC(=O)C(CO)NC(=O)C(C(O)C2CNC(=N)N2C2OC(CO)C(O)C(O)C2O)NC(=O)C(C(O)C2CNC(=N)N2)NC(=O)C(Cc2ccc(OC3OC(CO)C(OC4OC5COC(c6cc7c(cc6Cl)OCO7)OC5C(O)C4O)C(O)C3O)cc2)NC1=O (stereo not drawn) [Example 158, Cyclo[glycyl-β-methylphenylalanyl-O-[4-O-[4,6-O-[(6-chloro-1,3-benzodioxol-5-yl)-methylene]hexopyranosyl]hexopyranosyl]tyrosyl-3-(2-iminoimidazolidin-4-yl)seryl-3-(3-hexopyranosyl-2-iminoimidazolidin-4-yl)serylseryl]]
[1]
  median effective dose (ED50), Staphylococcus aureus-SMITH (GC 4543): 0.14 mg/kg
Escherichia coli; strain ATCC 25922
  MIC Escherichia coli (ATCC 25922): 64 µg/mL (≈ 43.8 µM)
Escherichia coli; strain GC 4559
  MIC Escherichia coli (GC 4559): 64 µg/mL (≈ 43.8 µM)
Escherichia coli; strain GC 4560
  MIC Escherichi coli (GC 4560): 1 µg/mL (≈ 0.684 µM)
Staphylococcus sp.; 5×10^5 CFU/mL
  MIC Coagulase Negative Staphylococcus (GC 4547): 2 µg/mL (≈ 1.37 µM)
  MIC Coagulase Negative Staphylococcus (GC 4548): 1 µg/mL (≈ 0.684 µM)
  MIC Coagulase Negative Staphylococcus (GC 4549): 1 µg/mL (≈ 0.684 µM)
  MIC Coagulase Negative Staphylococcus (GC 4551): 2 µg/mL (≈ 1.37 µM)
  MIC Coagulase Negative Staphylococcus (GC 6257): 1 µg/mL (≈ 0.684 µM)
  MIC Staphylococcus aureus (ATCC 29213): 2 µg/mL (≈ 1.37 µM)
  MIC Staphylococcus aureus (GC 1131): 2 µg/mL (≈ 1.37 µM)
  MIC Staphylococcus aureus (GC 3051): 1 µg/mL (≈ 0.684 µM)
  MIC Staphylococcus aureus (GC 3053): 2 µg/mL (≈ 1.37 µM)
  MIC Staphylococcus aureus (GC 4541): 1 µg/mL (≈ 0.684 µM)
  MIC Staphylococcus aureus (GC 4542): 1 µg/mL (≈ 0.684 µM)
  MIC Staphylococcus aureus (GC 4544): 2 µg/mL (≈ 1.37 µM)
  MIC Staphylococcus aureus (GC 4545): 2 µg/mL (≈ 1.37 µM)
  MIC Staphylococcus aureus-SMITH (GC 4543): 2 µg/mL (≈ 1.37 µM)
  MIC Staphylococcus haemolyticus (GC 4546): 0.5 µg/mL (≈ 0.342 µM)
Staphylococcus sp.; strain ATCC 29213
  MIC Staphylococcus aureus (ATCC 29213): 2 µg/mL (≈ 1.37 µM)
Staphylococcus sp.; strain GC 1131
  MIC Staphylococcus aureus (GC 1131): 2 µg/mL (≈ 1.37 µM)
Staphylococcus sp.; strain GC 3051
  MIC Staphylococcus aureus (GC 3051): 1 µg/mL (≈ 0.684 µM)
Staphylococcus sp.; strain GC 3053
  MIC Staphylococcus aureus (GC 3053): 2 µg/mL (≈ 1.37 µM)
Staphylococcus sp.; strain GC 4541
  MIC Staphylococcus aureus (GC 4541): 1 µg/mL (≈ 0.684 µM)
Staphylococcus sp.; strain GC 4542
  MIC Staphylococcus aureus (GC 4542): 1 µg/mL (≈ 0.684 µM)
Staphylococcus sp.; strain GC 4543
  MIC Staphylococcus aureus-SMITH (GC 4543): 2 µg/mL (≈ 1.37 µM)
Staphylococcus sp.; strain GC 4544
  MIC Staphylococcus aureus (GC 4544): 2 µg/mL (≈ 1.37 µM)
Staphylococcus sp.; strain GC 4545
  MIC Staphylococcus aureus (GC 4545): 2 µg/mL (≈ 1.37 µM)
Staphylococcus sp.; strain GC 4546
  MIC Staphylococcus haemolyticus (GC 4546): 0.5 µg/mL (≈ 0.342 µM)
Staphylococcus sp.; strain GC 4547
  MIC Coagulase Negative Staphylococcus (GC 4547): 2 µg/mL (≈ 1.37 µM)
Staphylococcus sp.; strain GC 4548
  MIC Coagulase Negative Staphylococcus (GC 4548): 1 µg/mL (≈ 0.684 µM)
Staphylococcus sp.; strain GC 4549
  MIC Coagulase Negative Staphylococcus (GC 4549): 1 µg/mL (≈ 0.684 µM)
Staphylococcus sp.; strain GC 4551
  MIC Coagulase Negative Staphylococcus (GC 4551): 2 µg/mL (≈ 1.37 µM)
Staphylococcus sp.; strain GC 6257
  MIC Coagulase Negative Staphylococcus (GC 6257): 1 µg/mL (≈ 0.684 µM)
Streptococcus sp.; strain ATCC 6301
  MIC Streptococcus pneumoniae (ATCC 6301): 0.12 µg/mL (≈ 0.0821 µM)
Streptococcus sp.; strain GC 1894
  MIC Streptococcus pneumoniae (GC 1894): <0.06 µg/mL
Streptococcus sp.; strain GC 4563
  MIC Streptococcus pyogenes (GC 4563): 0.25 µg/mL (≈ 0.171 µM)
Streptococcus sp.; strain GC 4564
  MIC Streptococcus agalactiae (GC 4564): 0.25 µg/mL (≈ 0.171 µM)
Streptococcus sp.; strain GC 4565
  MIC Streptococcus pneumoniae (GC 4565): <0.06 µg/mL
Enterococcus sp.; [2]
  MIC Enterococcus avium (GC 4558): 4 µg/mL (≈ 2.74 µM)
  MIC Enterococcus faecalis (ATCC 29212): 4 µg/mL (≈ 2.74 µM)
  MIC Enterococcus faecalis (GC 4552): 8 µg/mL (≈ 5.47 µM)
  MIC Enterococcus faecalis (GC 4553): 4 µg/mL (≈ 2.74 µM)
  MIC Enterococcus faecalis (GC 4554): 4 µg/mL (≈ 2.74 µM)
  MIC Enterococcus faecalis (GC 6189): 4 µg/mL (≈ 2.74 µM)
  MIC Enterococcus faecium (GC 2243): 4 µg/mL (≈ 2.74 µM)
  MIC Enterococcus faecium (GC 4556): 8 µg/mL (≈ 5.47 µM)
  MIC Enterococcus faecium (GC 4557): 2 µg/mL (≈ 1.37 µM)
Enterococcus sp.; strain ATCC 29212
  MIC Enterococcus faecalis (ATCC 29212): 4 µg/mL (≈ 2.74 µM)
Enterococcus sp.; strain GC 2242
  MIC Enterococcus faecalis (GC 2242): 4 µg/mL (≈ 2.74 µM)
Enterococcus sp.; strain GC 2243
  MIC Enterococcus faecium (GC 2243): 4 µg/mL (≈ 2.74 µM)
Enterococcus sp.; strain GC 2691
  MIC Enterococcus faecalis (GC 2691): 4 µg/mL (≈ 2.74 µM)
Enterococcus sp.; strain GC 3059
  MIC Enterococcus faecalis (GC 3059): 4 µg/mL (≈ 2.74 µM)
Enterococcus sp.; strain GC 4552
  MIC Enterococcus faecalis (GC 4552): 8 µg/mL (≈ 5.47 µM)
Enterococcus sp.; strain GC 4553
  MIC Enterococcus faecalis (GC 4553): 4 µg/mL (≈ 2.74 µM)
Enterococcus sp.; strain GC 4554
  MIC Enterococcus faecalis (GC 4554): 4 µg/mL (≈ 2.74 µM)
Enterococcus sp.; strain GC 4556
  MIC Enterococcus faecium (GC 4556): 8 µg/mL (≈ 5.47 µM)
Enterococcus sp.; strain GC 4557
  MIC Enterococcus faecium (GC 4557): 2 µg/mL (≈ 1.37 µM)
Enterococcus sp.; strain GC 4558
  MIC Enterococcus avium (GC 4558): 4 µg/mL (≈ 2.74 µM)
Enterococcus sp.; strain GC 6189
  MIC Enterococcus faecalis (GC 6189): 4 µg/mL (≈ 2.74 µM)
